Data taken from paper PMC10214524, “A Systematic Approach to the Discovery of Protein–Protein Interaction Stabilizers” (ACS Central Science, 2023).
Where a SMILES comes first, the peptide text is derived from it.

What was measured:
14-3-3σ [1] = target: T1, 14-3-3σ (Homo sapiens, UniProt P31947); experiment: 14-3-3σ titration to FITC-labeled phosphopeptide (peptide affinity)
T1 sequence (P31947 1-231 limits assumed): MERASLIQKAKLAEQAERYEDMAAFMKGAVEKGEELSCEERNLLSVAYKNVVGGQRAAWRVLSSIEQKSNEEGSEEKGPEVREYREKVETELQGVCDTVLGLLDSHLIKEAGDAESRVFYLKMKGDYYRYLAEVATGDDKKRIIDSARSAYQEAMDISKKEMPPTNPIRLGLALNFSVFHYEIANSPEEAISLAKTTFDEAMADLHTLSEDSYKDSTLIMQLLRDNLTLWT
Experimental: (§1) 14-3-3σ/phosphopeptide binding curves to determine binding affinities. (A) Protein titration with 14 -3-3σ in
(§2) (B) Competition assay used to determine Ki of
(§3) acetylated FOXO1 11-mer peptide (Ac-FOXO1) for mass spectrometry experiments. Ac-FOXO1 was titrated from high to
(§4) used to determine Ki of acetylated C-RAF 11-mer peptide (Ac-CRAF). (E) Protein titration with 14-3-3σ in presence of 100
(§5) nM FITC-labeled ERα 15-mer peptide determined KD. (F) Competition assay used to determine Ki of acetylated ΕRα 15-me r
(§6) peptide (Ac-ERα). (G) Protein titration with 14-3-3σ in presence of 100 nM FITC-labeled USP8 13-mer peptide determined
(§7) KD. (H) Competition assay used to determine Ki of acetylated USP8 13-mer peptide (Ac-USP8) . ( I) Protein titration with 14 -
(§8) of acetylated SOS1 13 -mer peptide (Ac-SOS1).

14-3-3σ [2] = target: T1, 14-3-3σ; experiment: Ac-peptide competition assay against FITC-peptide (peptide affinity)
Experimental: as §1, §2, §3, §4, §5, §6, §7, §8

Row | SMILES | Kd (14-3-3σ [1]) | Ki (14-3-3σ [2])
1 | CC(=O)N[C@@H](CCCNC(=N)N)C(=O)N[C@@H](CCC(N)=O)C(=O)N[C@@H](CCCNC(=N)N)C(=O)N[C@@H](CO)C(=O)N[C@H](C(=O)N[C@@H](COP(=O)(O)O)C(=O)N[C@H](C(=O)N1CCC[C@H]1C(=O)N[C@@H](CC(N)=O)C(=O)N[C@H](C(=O)N[C@@H](Cc1c[nH]cn1)C(N)=O)C(C)C)[C@@H](C)O)[C@@H](C)O [C-RAF, Ac-RQRST{pS}TPNVH-CONH2] (HELM PEPTIDE1{[ac].R.Q.R.S.T.[O=C([C@H](COP(=O)(O)O)N[*:1])[*:2]].T.P.N.V.H.[am]}$$$$V2.0) | 4.64 µM | 9.5 µM
2 | CC(=O)N[C@@H](CCCNC(=N)N)C(=O)N1CCC[C@H]1C(=O)N[C@@H](CCCNC(=N)N)C(=O)N[C@@H](CO)C(=O)N[C@@H](CS)C(=O)N[C@H](C(=O)N[C@@H](Cc1c[nH]c2ccccc12)C(=O)N1CCC[C@H]1C(=O)N[C@@H](CC(C)C)C(=O)N1CCC[C@H]1C(=O)N[C@@H](CCCNC(=N)N)C(N)=O)[C@@H](C)OP(=O)(O)O [FOXO1, Ac-RPRSC{pT}WPLPR-CONH2] (HELM PEPTIDE1{[ac].R.P.R.S.C.[C[C@@H](OP(=O)(O)O)[C@H](N[*:1])C(=O)[*:2]].W.P.L.P.R.[am]}$$$$V2.0) |  | 0.396 µM
3 | CC(=O)N1CCC[C@H]1C(=O)N[C@@H](CCCNC(=N)N)C(=O)N[C@@H](CCCNC(=N)N)C(=O)N[C@@H](CCCNC(=N)N)C(=O)N1CCC[C@H]1C(=O)N[C@@H](CCC(=O)O)C(=O)N[C@@H](COP(=O)(O)O)C(=O)N[C@@H](C)C(=O)N1CCC[C@H]1C(=O)N[C@@H](C)C(=O)N[C@@H](CCC(=O)O)C(=O)N[C@@H](CO)C(=O)N[C@@H](CO)C(N)=O [SOS1, Ac-PRRRPE{pS}APAESS-CONH2] (HELM PEPTIDE1{[ac].P.R.R.R.P.E.[O=C([C@H](COP(=O)(O)O)N[*:1])[*:2]].A.P.A.E.S.S.[am]}$$$$V2.0) | 5.06 µM | 3.66 µM
4 | CC[C@H](C)[C@H](NC(=O)[C@H](CC(=O)O)NC(=O)[C@@H]1CCCN1C(=O)[C@H](CO)NC(=O)[C@H](COP(=O)(O)O)NC(=O)[C@H](Cc1ccc(O)cc1)NC(=O)[C@H](CO)NC(=O)[C@H](CCCNC(=N)N)NC(=O)[C@H](CCCCN)NC(=O)[C@H](CC(C)C)NC(=O)[C@H](CCCCN)NC(C)=O)C(=O)N[C@H](C(=O)N[C@@H](CCC(N)=O)C(N)=O)[C@@H](C)O [USP8, Ac-KLKRSY{pS}SPDITQ-CONH2] (HELM PEPTIDE1{[ac].K.L.K.R.S.Y.[O=C([C@H](COP(=O)(O)O)N[*:1])[*:2]].S.P.D.I.T.Q.[am]}$$$$V2.0) | 3.77 µM | 14.3 µM
